Assay results as given in patent publication US8519173B2, “Plant growth regulator” (Shiseido Company, Ltd., priority 2009, dated 2013).

Tests used:
[1] = test system: morning glory (variety: Murasaki); assay: Bud formation promotion activity on morning glory; type: in vivo; details: sprayed at 100 μM; treatment in dark 14 h or 15 h; buds measured on day 14 under continuous light at 25° C.; N=8 plants; compared with water (FIG. 1)
Procedure: 9 g of morning glory (variety: Murasaki) seeds were treated with concentrated sulfuric acid for 20 minutes followed by allowing to stand overnight in running water. Next, the seeds were allowed to take root by allowing to stand for 24 hours on wet sea sand with the omphalos portion of the seed facing upward. The seeds that had taken root were planted to a depth of about 1.5 cm to 2.0 cm in sea sand and cultured under continuous light (for about 5 days).
All of the morning glory plants that foliated as a result of this culturing were transferred to a culture broth (containing KNO3 (250 mg), NH4NO3 (250 mg), KH2PO4 (250 mg), MgSO4.7H2O (250 mg), MnSO4.4H2O (1 mg), Fe-citrate-n-hydrate (6 mg), H3BO3 (2 mg), CuSO4.5H2O (0.1 mg), ZeSO4.7H2O (0.2 mg), Na2MoO4.2H2O (0.2 mg) and Ca(H2PO4)2.2H2O (250 mg) in 1000 mL of distilled water).
0.10 μM and 100 μM aqueous solutions of the present ketol fatty acid derivative obtained in the aforementioned Example 1 were sprayed onto this culture system and subjected to treatment in dark for 14 hours or 15 hours. Following this treatment in dark, water or the present ketol fatty acid derivative was sprayed again followed by growing the plants under continuous light for 14 days at 25° C. and measuring the buds that formed on day 14. […]

[2] = Stability on standing at room temperature; type: physicochemical; details: allowed to stand at room temperature

SMILES | increase in number of buds that formed [1] | stability (loss of activity) [2]
CC/C=C\CC1CC1CC(=O)C(O)CCCCCCCC(=O)O (centres unmarked) | more than 200% | 
CC/C=C\C/C=C\CC(=O)C(O)CCCCCCCC(=O)O (stereo not drawn) [α-ketol unsaturated fatty acid] |  | losing activity in a few days
